According to patent US20180153780A1, “Composition For Providing High Lift And Color Deposit” (Zotos International, Inc., priority 2016, published 2018):

Experiments:
[1] = Visual evaluation of the alkalizers' lightening power; settings: conclusion from Tables 5 and 6, comparison of alkalizers
From the text: The examples above show hair lightening and hair coloring compositions. […]

[2] = Minolta L.A.B. (CIELAB) evaluation of lightening power on hair tresses; settings: FIG. 1
Protocol: In all examples, the ΔE values were measured using a L.A.B. reading using the color measurement method of CIELAB which is used to mathematically compute and compare the color of hair tresses. The method was developed by CIE using L*, a* and b* values. L* represents the difference between light (where L*=100) and dark (where L* is 0); a represents the difference between green ([…]) and red (+a*); and b* represents the difference between yellow (+b*) and blue (−b*). This system then maps true color to a place on a three dimensional graph wherein the variables are calculated by the changes in their values and those changes are used to compute the ΔE value which is a change in color. Such a system is commercially known and used in the art.

| SMILES | lift on the darker hair [1] | lift when added to ammonium hydroxide and MEA, versus the same component alone [2] |
| --- | --- | --- |
| N [ammonium hydroxide] | highest amount of lift |  |
| O=[Si]([O-])[O-].[Na+].[Na+] [sodium metasilicate] |  | synergistic lift |
